Source: patent publication US20100120858A1, “Piperidine Derivatives” (Pfizer Inc., priority 2006, published 2010)
Structures can show the parent of a compound that is named as a salt.

Columns and labels:
[1] = target: human serotonin transporter (Homo sapiens, UniProt P31645); assay: Human serotonin (hSERT) receptor binding, [125I]-RTI-55; details: membranes of HEK-293 cells transfected with human serotonin transporter cDNA, IC50 converted by Cheng-Prusoff
Description: (§1) Cell pastes of HEK-293 cells transfected with a human serotonin transporter cDNA were prepared. The cell pastes were resuspended in 400 to 700 ml of Krebs-HEPES assay buffer (25 mM HEPES, 122 mM NaCl, 3 mM KCl, 1.2 mM MgSO4, 1.3 mM CaCl2, and 11 mM glucose, pH 7.4) with a Polytron homogenizer at Setting 7 for 30 seconds. Aliquots of membranes (˜2.5 mg/mL protein) were stored in liquid nitrogen until used.
Assays were set up in FlashPlates pre-coated with 0.1% polyethyleneimine (PEI) in a total volume of 250 μL containing: test compound (concentration 10^−5M to 10^−12M), cell membranes, and […] [^125I]-RTI-55 (Perkin Elmer, NEX-272; specific activity 2200 Ci/mmol). The reaction was incubated and gently agitated for 90 minutes at room temperature, and terminated by removal of assay volume. Plates were covered, and bound [^125I]-RTI-55 was determined using a Wallac Trilux Beta Plate Counter. Test compounds were run in duplicate, and specific binding was defined as the difference between binding in the presence and absence of 10 μM citalopram.
Excel and GraphPad Prism software were used for data calculation and analysis. IC50 values were converted to Ki values using the Cheng-Prusoff equation.

[2] = target: human norepinephrine transporter (Homo sapiens, UniProt P23975); assay: Human norepinephrine (hNET) receptor binding, [125I]-RTI-55; details: membranes of HEK-293 cells transfected with human norepinephrine transporter cDNA; 50 pM [125I]-RTI-55; IC50 converted by Cheng-Prusoff
Description: as §1, with “human embryonic kidney 293 (HEK-293)” for “HEK-293”, “norepinephrine” for “serotonin”, “mL” for “ml”, “Krebs-N-2-hydroxyethylpiperazine-N′-2-ethanesulfonic acid (HEPES)” for “Krebs-HEPES”, “setting” for “Setting”, “(5” for “(˜2.5”
The binding assay was set up in Beckman deep-well polypropylene plates with a total volume of 250 μL containing: test compound (concentration of 10^−5M to 10^−12M), cell membranes, and 50 pM [^125I]-RTI-55 ([^125I]-3 beta-(4-iodophenyl)tropan-2 beta-carboxylic acid methyl ester) (Perkin Elmer, NEX-272; specific activity 2200 Ci/mmol). The reaction was incubated by gentle agitation for 90 minutes at room temperature and was terminated by filtration through Whatman GF/C filter plates using a Brandel 96-well plate harvester. Scintillation fluid (100 μL) was added to each well, and bound [^125I]-RTI-55 was determined using a Wallac Trilux Beta Plate Counter. Test compounds were run in duplicate, and specific binding was defined as the difference between binding in the presence and absence of 10 μM desipramine.
Excel and GraphPad Prism software were used for data calculation and analysis. IC50 values were converted to Ki values using the Cheng-Prusoff equation. The Ki values (nM) for the hNET are reported below in Table 13.

human norepinephrine transporter, sequence (P23975 whole entry): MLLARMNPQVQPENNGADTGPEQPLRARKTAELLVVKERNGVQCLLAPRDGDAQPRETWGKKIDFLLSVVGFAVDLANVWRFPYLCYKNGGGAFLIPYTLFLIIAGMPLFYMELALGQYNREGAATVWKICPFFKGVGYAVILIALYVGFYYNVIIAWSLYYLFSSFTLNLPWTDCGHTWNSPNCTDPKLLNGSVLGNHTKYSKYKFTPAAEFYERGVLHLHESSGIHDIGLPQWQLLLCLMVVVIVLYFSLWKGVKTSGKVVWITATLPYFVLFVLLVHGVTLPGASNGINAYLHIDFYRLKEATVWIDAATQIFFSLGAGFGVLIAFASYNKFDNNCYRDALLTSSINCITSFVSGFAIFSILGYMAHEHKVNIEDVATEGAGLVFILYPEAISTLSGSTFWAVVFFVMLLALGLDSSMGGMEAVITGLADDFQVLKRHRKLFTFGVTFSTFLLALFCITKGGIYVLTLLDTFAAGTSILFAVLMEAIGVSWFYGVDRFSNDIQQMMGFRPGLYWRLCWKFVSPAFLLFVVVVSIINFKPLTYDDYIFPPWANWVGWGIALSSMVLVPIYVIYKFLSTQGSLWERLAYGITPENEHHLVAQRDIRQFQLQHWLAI
human serotonin transporter, sequence (P31645 whole entry): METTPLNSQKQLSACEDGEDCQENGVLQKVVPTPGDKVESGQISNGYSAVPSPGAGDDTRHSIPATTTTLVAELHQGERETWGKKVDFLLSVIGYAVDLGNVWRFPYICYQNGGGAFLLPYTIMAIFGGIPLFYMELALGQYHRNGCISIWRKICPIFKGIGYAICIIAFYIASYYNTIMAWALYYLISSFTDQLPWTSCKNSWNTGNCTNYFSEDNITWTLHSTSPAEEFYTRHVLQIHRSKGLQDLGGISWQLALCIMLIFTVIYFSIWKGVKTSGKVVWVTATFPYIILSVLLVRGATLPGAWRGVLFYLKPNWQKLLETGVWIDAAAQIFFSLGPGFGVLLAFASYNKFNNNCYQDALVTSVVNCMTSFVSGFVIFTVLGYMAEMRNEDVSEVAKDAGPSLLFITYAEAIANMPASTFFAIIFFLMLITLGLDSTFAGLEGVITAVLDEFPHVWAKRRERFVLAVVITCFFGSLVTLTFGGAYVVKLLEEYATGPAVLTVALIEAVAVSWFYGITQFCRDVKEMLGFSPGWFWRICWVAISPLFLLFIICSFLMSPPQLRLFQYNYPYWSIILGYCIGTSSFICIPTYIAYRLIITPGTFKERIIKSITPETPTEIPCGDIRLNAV

SMILES | Ki [1] | Ki [2]
Fc1ccc(Oc2ncccc2OC[C@H]2CCCNC2)cc1 [Example 53, (S)-2-(4-fluoro-phenoxy)-3-(piperidin-3-ylmethoxy)-pyridine fumaric acid] | 7.05 µM | 0.003 µM
CC(C)COc1ccccc1O[C@@H](C)[C@H]1CCCNC1 [Example 109, (S)-3-[(S)-1-(2-isobutoxy-phenoxy)-ethyl]-piperidine] | 1.2 µM | 0.003 µM
Cc1ccc(OC[C@H]2CCCNC2)c(Oc2cccc(C(F)(F)F)c2)n1 [Example 27, (S)-6-methyl-2-(3-trifluoromethy-phenoxy)-3-(piperidin-3-ylmethoxy)-pyridine fumaric acid] | 0.56 µM | 0.31 µM
Cc1ccc(OC[C@H]2CCCNC2)c(Oc2c(F)ccc(Cl)c2F)n1 [Example 50, (S)-2-(3-chloro-2,6-difluoro-phenoxy)-6-methyl-3-(piperidin-3-ylmethoxy)-pyridine hydrochloride] | 0.0603 µM | 0.0055 µM
Cc1ccc(OC[C@H]2CCCNC2)c(Oc2ccc(Cl)c(F)c2)n1 [Example 31, (S)-2-(4-chloro-3-fluoro-phenoxy)-6-methyl-3-(piperidin-3-ylmethoxy)-pyridine fumaric acid] | 0.101 µM | 0.0084 µM
COc1cc(F)ccc1Oc1cc(C(F)(F)F)ccc1OC[C@H]1CCCNC1 [Example 37, (S)-3-[2-(4-fluoro-2-methoxy-phenoxy)-4-trifluoromethyl-phenoxymethyl]-piperidine fumaric acid] | 0.022 µM | 0.077 µM
Cc1ccc(OC[C@H]2CCCNC2)c(Oc2ccc(F)cc2)n1 [Example 41, (S)-2-(4-fluoro-phenoxy)-6-methyl-3-(piperidin-3-ylmethoxy)-pyridine fumaric acid] | 0.21 µM | 0.0038 µM
Cc1ccc(OC[C@H]2CCCNC2)c(Oc2cccc(Cl)c2)n1 [Example 15, (S)-2-(3-chloro-phenoxy)-6-methyl-3-(piperidin-3-ylmethoxy)-pyridine fumaric acid] | 0.287 µM | 0.0098 µM
COc1cccc(F)c1Oc1cc(Cl)ccc1OC[C@H]1CCCNC1 [Example 40, (S)-3-[4-chloro-2-(2-fluoro-6-methoxy-phenoxy)-phenoxymethyl]-piperidine fumaric acid] | 0.014 µM | 0.0075 µM
Fc1ccc(Oc2c(F)cccc2OC[C@H]2CCCNC2)cc1 [Example 98, (S)-3-[3-fluoro-2-(4-fluoro-phenoxy)-phenoxymethyl]-piperidine trifluoroacetic acid] | 1.3 µM | 0.001 µM
Cc1ccc(OC[C@H]2CCCNC2)c(Oc2ccc3c(c2)CCC3)n1 [Example 18, (S)-2-(2,3-dihydro-1H-inden-5-yloxy)-6-methyl-3-(piperidin-3-ylmethoxy)pyridine fumaric acid] | 0.62 µM | 0.054 µM
CCOc1ccccc1O[C@@H](C)[C@H]1CCCNC1 [Example 107, (S)-3-[(S)-1-(2-ethoxy-phenoxy)-ethyl]-piperidine] | 2.7 µM | 0.007 µM
CCOc1ccccc1OC(c1ccccc1)[C@H]1CCCNC1 (mixture of isomers) [Example 106, (S)-3-[(2-ethoxy-phenoxy)-(R,S)-phenyl-methyl]-piperidine fumaric acid] | 0.43 µM | 0.007 µM
COc1ccc(Oc2nc(C)ccc2OC[C@H]2CCCNC2)c(F)c1 [Example 30, (S)-2-(2-fluoro-4-methoxy-phenoxy)-6-methyl-3-(piperidin-3-ylmethoxy)-pyridine fumaric acid] | 0.23 µM | 0.015 µM
Cc1ccc(OC[C@H]2CCCNC2)c(Oc2ccc(F)cc2Cl)n1 [Example 24, (S)-2-(2-chloro-4-fluoro-phenoxy)-6-methyl-3-(piperidin-3-ylmethoxy)-pyridine fumaric acid] | 0.16 µM | 0.0027 µM
CC(C)COc1cccc(F)c1OC[C@H]1CCCNC1 [Example 104, (S)-3-(2-fluoro-6-isobutoxy-phenoxymethyl)-piperidine fumaric acid] | – | 0.026 µM
